Test results from US10174032B2, “Heterocyclic compound classes for signaling modulation” (SignalRx Pharmaceuticals, Inc., priority 2014, dated 2019).
Blank lines part the entries; values can stand above or below the compound they belong to.

Experiments:
BRD4 = BRD4 (Homo sapiens, UniProt O60885); experiment: BRD4 inhibition assay of CAL101; assay type: binding; settings: no significant BRD4 inhibition
PI3K-beta = PI3K-beta (Homo sapiens, UniProt P42338); experiment: Kinase inhibition assay, P-33 labelled ATP phosphate transfer, PI3K-beta; assay type: biochemical
Sequence of PI3K-beta (P42338 whole entry, species assumed): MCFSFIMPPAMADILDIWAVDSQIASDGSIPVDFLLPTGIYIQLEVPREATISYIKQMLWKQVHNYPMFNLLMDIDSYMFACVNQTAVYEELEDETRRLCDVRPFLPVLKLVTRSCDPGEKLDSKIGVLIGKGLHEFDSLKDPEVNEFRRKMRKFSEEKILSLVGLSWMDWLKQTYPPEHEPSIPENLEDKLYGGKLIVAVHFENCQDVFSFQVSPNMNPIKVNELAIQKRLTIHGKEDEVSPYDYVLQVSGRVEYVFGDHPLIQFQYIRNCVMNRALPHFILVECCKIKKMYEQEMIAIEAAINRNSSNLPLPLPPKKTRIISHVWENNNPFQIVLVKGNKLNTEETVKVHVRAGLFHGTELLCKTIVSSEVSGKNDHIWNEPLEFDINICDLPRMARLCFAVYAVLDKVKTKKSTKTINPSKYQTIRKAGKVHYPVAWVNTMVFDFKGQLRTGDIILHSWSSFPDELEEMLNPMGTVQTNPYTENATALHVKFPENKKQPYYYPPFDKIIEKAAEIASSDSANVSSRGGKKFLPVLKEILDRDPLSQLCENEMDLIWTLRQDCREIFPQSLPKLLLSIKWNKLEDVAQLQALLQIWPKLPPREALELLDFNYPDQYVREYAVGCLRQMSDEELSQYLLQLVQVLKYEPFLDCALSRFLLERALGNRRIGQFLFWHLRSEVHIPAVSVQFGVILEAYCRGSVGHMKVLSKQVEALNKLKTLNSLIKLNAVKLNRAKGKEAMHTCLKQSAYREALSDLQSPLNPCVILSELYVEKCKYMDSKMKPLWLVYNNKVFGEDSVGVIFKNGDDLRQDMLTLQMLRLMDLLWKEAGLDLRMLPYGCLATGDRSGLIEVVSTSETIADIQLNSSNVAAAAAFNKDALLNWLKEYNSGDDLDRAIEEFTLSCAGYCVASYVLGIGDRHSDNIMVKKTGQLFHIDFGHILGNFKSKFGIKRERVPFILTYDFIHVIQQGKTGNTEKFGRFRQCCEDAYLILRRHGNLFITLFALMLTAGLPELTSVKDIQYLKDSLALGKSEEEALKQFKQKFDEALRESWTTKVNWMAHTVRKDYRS
Sequence of PI3K-beta (P27986 whole entry partner, species assumed): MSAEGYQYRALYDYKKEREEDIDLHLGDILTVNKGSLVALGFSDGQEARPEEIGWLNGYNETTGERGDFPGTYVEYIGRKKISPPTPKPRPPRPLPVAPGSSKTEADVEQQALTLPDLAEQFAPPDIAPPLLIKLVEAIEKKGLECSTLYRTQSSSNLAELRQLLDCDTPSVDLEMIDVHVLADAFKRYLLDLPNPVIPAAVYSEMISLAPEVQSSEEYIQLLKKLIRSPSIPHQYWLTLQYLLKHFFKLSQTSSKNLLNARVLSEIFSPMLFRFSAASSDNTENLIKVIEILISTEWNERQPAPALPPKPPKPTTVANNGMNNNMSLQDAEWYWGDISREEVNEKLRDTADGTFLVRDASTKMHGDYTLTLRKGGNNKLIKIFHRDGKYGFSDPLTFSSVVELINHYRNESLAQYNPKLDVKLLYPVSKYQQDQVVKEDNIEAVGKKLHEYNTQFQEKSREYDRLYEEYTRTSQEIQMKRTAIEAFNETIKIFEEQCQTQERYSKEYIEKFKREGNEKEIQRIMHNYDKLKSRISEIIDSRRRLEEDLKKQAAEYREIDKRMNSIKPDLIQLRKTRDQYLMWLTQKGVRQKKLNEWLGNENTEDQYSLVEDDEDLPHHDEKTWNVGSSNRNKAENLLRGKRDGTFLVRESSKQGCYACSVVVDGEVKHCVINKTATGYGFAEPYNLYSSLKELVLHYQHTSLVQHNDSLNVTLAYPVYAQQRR
Protocol: (§1) The assays determined the amount of radioactive phosphate transferred from P-33 labelled ATP to the substrate by the enzyme in the presence of various concentrations of the inhibitor test compounds. […] After this time period the cells were serum starved for 5 hours followed by application of the test compound. Test compound was added as a DMSO (dimethyl sulfoxide) solution such that the final DMSO concentration in the cell media was less than or equal to 0.2% by volume. After 30 minutes of exposure the growth factor stimulant, human IGF-1 (Pepro Tech, Inc., Rocky Hill, N.J., Cat.#100-11), was added in each well. […] A SpectraMax Plus spectrophotometric plate reader (Molecular Devices, Sunnydale, Calif.) was used to measure the optical density signal for pAKT at 450 nm (OD450 nm). The pAKT OD450 nm readings were normalized by total protein amount in the cell lysates determined by standard methods. Concentrations of test compounds required to inhibit IGF stimulated pAKT levels to 50% of maximum levels in PC3 cells (termed DM50 for decreased maximum 50%) were calculated by inputting the dose responses in the software package GraphPad Prism4 (GraphPad Software, Inc., San Diego, Calif.).

[1] = test system: pAKT serine 473 in PC3 cells; experiment: IGF-1 stimulated pAKT serine 473 level in PC3 cells (sandwich ELISA); assay type: cell-based; settings: Homo sapiens, PC-3, 0.5 h, 30 minutes compound exposure, termed DM50 in text
Protocol: as §1

PI3K-gamma = PI3K-gamma (Homo sapiens, UniProt P48736); experiment: Kinase inhibition assay, P-33 labelled ATP phosphate transfer, PI3K-gamma; assay type: biochemical
Sequence of PI3K-gamma (P48736 whole entry, species assumed): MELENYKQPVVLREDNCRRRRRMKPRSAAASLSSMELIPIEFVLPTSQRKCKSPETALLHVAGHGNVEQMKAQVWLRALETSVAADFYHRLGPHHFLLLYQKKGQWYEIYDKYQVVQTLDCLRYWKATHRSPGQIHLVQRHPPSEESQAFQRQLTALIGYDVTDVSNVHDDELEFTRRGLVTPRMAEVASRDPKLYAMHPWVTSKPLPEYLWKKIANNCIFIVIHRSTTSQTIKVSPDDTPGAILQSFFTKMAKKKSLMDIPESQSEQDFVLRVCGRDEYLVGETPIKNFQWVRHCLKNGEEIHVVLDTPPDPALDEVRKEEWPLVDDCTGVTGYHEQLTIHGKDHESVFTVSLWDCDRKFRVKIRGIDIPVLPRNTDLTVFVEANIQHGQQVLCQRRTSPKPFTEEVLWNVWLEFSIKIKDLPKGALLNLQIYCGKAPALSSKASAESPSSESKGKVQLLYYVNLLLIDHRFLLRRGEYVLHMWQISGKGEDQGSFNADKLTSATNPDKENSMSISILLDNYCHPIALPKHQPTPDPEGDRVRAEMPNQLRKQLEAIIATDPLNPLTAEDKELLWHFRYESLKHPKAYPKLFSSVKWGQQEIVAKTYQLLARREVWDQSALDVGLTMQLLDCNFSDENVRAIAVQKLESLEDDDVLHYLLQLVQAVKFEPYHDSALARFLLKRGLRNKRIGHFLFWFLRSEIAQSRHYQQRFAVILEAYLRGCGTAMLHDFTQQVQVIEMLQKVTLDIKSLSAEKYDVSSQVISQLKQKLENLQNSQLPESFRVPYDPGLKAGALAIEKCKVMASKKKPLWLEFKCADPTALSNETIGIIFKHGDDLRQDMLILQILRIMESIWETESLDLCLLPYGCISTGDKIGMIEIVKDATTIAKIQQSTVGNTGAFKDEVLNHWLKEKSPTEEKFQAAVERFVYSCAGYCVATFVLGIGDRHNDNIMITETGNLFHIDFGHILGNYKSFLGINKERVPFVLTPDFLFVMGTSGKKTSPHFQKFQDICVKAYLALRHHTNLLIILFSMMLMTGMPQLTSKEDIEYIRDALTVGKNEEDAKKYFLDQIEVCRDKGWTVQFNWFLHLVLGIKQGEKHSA
Protocol: as §1

PC3 cells = experiment: PC3 cell proliferation (WST, 72 hours); assay type: cell-based; settings: Homo sapiens, PC-3; PC3 cells, 72 hours, WST; read-out: PC3 cell proliferation(IC50 μM)
Protocol: The PC3 cell proliferation data in column 26 of Table 5 was obtained as follows: PC3 cells were obtained from the American Type Culture Collection (ATCC, Manassas, Va., Cat.#CRL-1435). Two thousand cells from the prostate cancer line PC3 were placed in 50 μL of complete RPMI 1640 media (Invitrogen, Carlsbad, Calif., Cat.#22400-105) with 10% fetal bovine serum, (Invitrogen, Carlsbad, Calif., Cat.#10438-026) into each well of 96-well cell culture plates in a hexaplicate sampling pattern. A 50 μL aliquot of test compound (prepared from stock test compounds in DMSO diluted into media) was added to the appropriate well such that the final concentrations of test compound were 200, 40, 8, 1.6, 0.32, 0.064, 0.0128, 0.00256, and 0 μM and the final DMSO concentration was less than or equal to 0.2% . The plates were incubated for 72 hours 37° C. in an atmosphere of 5% CO2. At the end of this time a 10 μL aliquot of WST solution (Roche Applied Science, Mannheim, Germany) was added into each of the wells. Cells were exposed to the WST solution for 4 hours. A SpectraMax Plus spectrophotometric plate reader (Molecular Devices, Sunnydale, Calif.) was then used to measure the optical density at 450 nm (OD450 nm). Sigmoidal curves were drawn for the dose responses and IC50 values were calculated using the software package GraphPad Prism4 (GraphPad Software, Inc., San Diego, Calif.).

PI3K-delta = PI3K-delta (Homo sapiens, UniProt O00329); experiment: Kinase inhibition assay, P-33 labelled ATP phosphate transfer, PI3K-delta; assay type: biochemical
Sequence of PI3K-delta (O00329 whole entry, species assumed): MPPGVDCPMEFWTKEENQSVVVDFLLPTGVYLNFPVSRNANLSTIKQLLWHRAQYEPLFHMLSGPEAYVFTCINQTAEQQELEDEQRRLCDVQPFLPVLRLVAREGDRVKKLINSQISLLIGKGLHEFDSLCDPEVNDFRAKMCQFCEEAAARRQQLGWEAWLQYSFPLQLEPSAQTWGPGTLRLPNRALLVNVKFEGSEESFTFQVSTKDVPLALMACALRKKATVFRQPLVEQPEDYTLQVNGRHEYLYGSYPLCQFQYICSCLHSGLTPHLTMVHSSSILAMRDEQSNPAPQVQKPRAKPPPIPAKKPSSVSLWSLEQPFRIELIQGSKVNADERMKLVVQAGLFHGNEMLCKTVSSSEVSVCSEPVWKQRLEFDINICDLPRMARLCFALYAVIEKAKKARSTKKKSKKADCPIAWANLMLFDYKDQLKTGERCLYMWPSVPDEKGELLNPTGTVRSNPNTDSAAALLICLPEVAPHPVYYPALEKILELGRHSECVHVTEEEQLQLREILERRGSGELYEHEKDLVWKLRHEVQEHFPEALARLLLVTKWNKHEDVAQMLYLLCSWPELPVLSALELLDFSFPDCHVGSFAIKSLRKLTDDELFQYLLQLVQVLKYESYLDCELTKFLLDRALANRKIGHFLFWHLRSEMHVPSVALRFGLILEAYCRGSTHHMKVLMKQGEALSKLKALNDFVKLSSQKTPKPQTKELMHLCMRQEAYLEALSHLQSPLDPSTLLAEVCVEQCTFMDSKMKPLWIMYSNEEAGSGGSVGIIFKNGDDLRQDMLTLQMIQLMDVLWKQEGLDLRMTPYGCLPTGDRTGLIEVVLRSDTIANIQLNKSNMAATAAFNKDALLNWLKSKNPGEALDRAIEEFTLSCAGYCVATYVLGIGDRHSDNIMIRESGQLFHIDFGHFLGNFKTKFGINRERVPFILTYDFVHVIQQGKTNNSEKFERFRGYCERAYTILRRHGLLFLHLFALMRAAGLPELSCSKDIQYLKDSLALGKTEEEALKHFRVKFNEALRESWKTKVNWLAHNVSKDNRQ
Sequence of PI3K-delta (P27986 whole entry partner, species assumed): as the sequence (P27986 whole entry partner, species assumed) above
Protocol: as §1

PLK-1 = PLK-1 (Homo sapiens, UniProt P53350); experiment: Kinase inhibition assay, P-33 labelled ATP phosphate transfer, PLK-1; assay type: biochemical
Sequence of PLK-1 (P53350 whole entry, species assumed): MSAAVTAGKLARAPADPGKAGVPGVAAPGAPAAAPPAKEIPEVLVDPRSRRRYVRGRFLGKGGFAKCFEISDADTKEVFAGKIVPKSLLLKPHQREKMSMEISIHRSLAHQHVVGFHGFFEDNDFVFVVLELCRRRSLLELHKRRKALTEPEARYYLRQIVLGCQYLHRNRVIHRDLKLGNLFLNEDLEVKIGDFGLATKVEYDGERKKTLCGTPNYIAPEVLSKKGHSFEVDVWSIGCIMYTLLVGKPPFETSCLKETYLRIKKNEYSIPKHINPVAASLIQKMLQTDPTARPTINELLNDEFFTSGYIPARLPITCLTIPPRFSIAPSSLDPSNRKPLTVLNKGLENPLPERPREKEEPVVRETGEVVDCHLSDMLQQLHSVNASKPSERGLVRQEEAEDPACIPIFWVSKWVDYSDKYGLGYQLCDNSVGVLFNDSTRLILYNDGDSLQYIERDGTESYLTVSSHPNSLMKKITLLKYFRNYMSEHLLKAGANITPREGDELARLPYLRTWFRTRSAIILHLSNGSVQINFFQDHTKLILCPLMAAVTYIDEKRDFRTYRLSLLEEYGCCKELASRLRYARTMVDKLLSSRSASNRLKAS
Protocol: as §1

PI3K-alpha = PI3K-alpha (Homo sapiens, UniProt P42336); experiment: Kinase inhibition assay, P-33 labelled ATP phosphate transfer, PI3K-alpha; assay type: biochemical
Protocol: as §1

mTOR = mTOR (Homo sapiens, UniProt P42345); experiment: Kinase inhibition assay, P-33 labelled ATP phosphate transfer, mTOR; assay type: biochemical; settings: read-out: mTOR(% Inh at 300 nM)
Protocol: as §1

BET protein BRD4-1 = BET protein BRD4-1 (Homo sapiens, UniProt O60885); settings: S W J Ember 2014; cited from earlier work

IC50 (BRD4): > 50 µM
SMILES: CC[C@H](Nc1ncnc2[nH]cnc12)c1nc2cccc(F)c2c(=O)n1-c1ccccc1 [CAL101]

IC50 (PI3K-beta): 10 µM
IC50 [1]: 11 µM
IC50 (PI3K-gamma): 5.5 µM
IC50 (PC3 cells): 28 µM
IC50 (PI3K-delta): 1.5 µM
IC50 (PLK-1): 2.3 µM
IC50 (PI3K-alpha): 1.4 µM
inhibition at 0.3 µM (mTOR): 4%
SMILES: O=c1nc(N2CCOCC2)oc2c(-c3ccccc3)csc12 [Compound 3, 2-morpholino-7-phenyl-4H-thieno[2,3-e][1,3]oxazin-4-one]

SMILES: Cc1cnc(Nc2ccc(N3CCN(C)CC3)cc2)nc1Nc1cccc(S(=O)(=O)NC(C)(C)C)c1 [TG101209]
inhibition of BET protein BRD4-1 (BET protein BRD4-1): potently inhibit
